# Measured values reported in patent US20260224573A1, “CRYSTAL FORM OF COMPOUND, AND PREPARATION METHOD AND USE THEREOF” (FELICAMED BIOTECHNOLOGY CO., LTD., priority 2023, published 2026).
# Read-outs that look alike come from different tables or passages of the source.
# Columns and labels:
# [1] = Assessment of 24-h solubility in pH buffers; format: physicochemical; details: room temperature
# [2] = Procedure: A method for testing the density and the tapped density included: (1) a certain mass of to-be-assessed sample was placed into a 5 mL measuring cylinder, and the volume at this moment was recorded. The bulk density was calculated by dividing the mass of the sample by the volume at this moment. (2) The measuring cylinder was slightly tapped 200 times, the final volume was recorded, and the tapped density was calculated by dividing the mass of the sample by the final volume. (3) Three parallel tests were conducted. A method for testing the angle of repose included: (1) a funnel was fixed vertically to a bottom surface, and the material was slowly placed into the funnel. (2) A well-proportioned cone of the material was formed on the bottom surface. The height and bottom surface diameter of the cone were measured. (3) Three parallel tests were conducted.
# [3] = remark: listed apart in the source
# Text: DVS isotherms were collected on an SMS (Surface Measurement Systems) DVS Intrinsic.
# SD rats = assay: Acute toxicity test, single oral intragastric administration; format: in vivo; details: female rats
# Procedure: (§1) In this experiment, all animals were randomly divided into 5 groups (5 animals/sex/group), received the drug at 97 mg/kg, 174 mg/kg, 312 mg/kg, 559 mg/kg, and 1000 mg/kg, respectively, and received signal intragastric administration orally. […] All animals received administration according to their latest weighed body weight. The drug was stirred for at least 10 min before administration, and continuously stirred during administration until the administration of the sample at this concentration was completed. The animals were fasted for 11 h to 12 h before administration and resumed eating approximately 2 h after administration, with no restriction on drinking water.
# (§2) All animals underwent a comprehensive physical examination by a veterinarian before administration. During the acclimation period, cage-side observation was performed once or twice a day, and detailed clinical observation was performed once a day. During the experiment, cage-side observation was performed twice a day (once on the day of dissection), and detailed clinical observation was performed once or twice a day. All surviving animals were weighed once on the day of random grouping (Day-1), Day 1 (before administration), Day 3, Day 5, Day 7, and Day 8; and their 24±1-hour food consumption was measured once on Day 1 (Day 1 to Day 2), Day 2 (Day 2 to Day 3), and Day 6 (Day 6 to Day 7). At the end of the experimental (Day 8), all surviving animals were euthanized by carbon dioxide inhalation and abdominal aorta/vein bleeding and then subjected to gross anatomical examination. Animals that died during the experiment were also subjected to gross anatomical examination.
# [4] = as above; format: in vivo; details: Sprague-Dawley, rat, in vivo
# Procedure: as §1, §2
# [5] = TGA weight loss / thermal stability; format: physicochemical
# Text: TGA and DSC patterns were collected on a TA Q5000 thermogravimetric analyzer and a TA Discovery 2500 differential scanning calorimeter, respectively.
# TGA results were collected on a TA Discovery 5500 thermogravimetric analyzer, and DSC results were collected on a TA Discovery 2500 differential scanning calorimeter.
# Remark: listed apart in the source
# [6] = Assessment of dynamic solubility; format: physicochemical; details: for FC: crystal transfer (XRPD of solid) / pH of filtrate: 37° C.; for solubility / solubility at 1 h / solubility at 2 h / solubility at 4 h / solubility at 24 h: 37 °C, thermodynamic from solid; for solubility at 1 h / solubility at 2 h / solubility at 4 h / solubility at 24 h: read-out: S: solubility, calculated as free form
smiles,measurement,setting,value
CC[S@@](=N)(=O)C[C@H]1CC[C@H](N(C)c2ncnc3[nH]ccc23)CC1 [Free crystal form A],FC: crystal transfer,[1]; Buffer (pH = 2.0),No
same,FC: crystal transfer,[1]; Buffer (pH = 7.4),No
same,solubility at 24 h,"[1]; buffer pH 7.4, pH 7.4, aqueous buffer, thermodynamic from solid, Buffer (pH = 7.4), read-out: S: solubility, calculated as free form",1700 µg/mL
same,flowability,[2]; conclusion from Carr index and angle of repose,high flowability
same,Bulk density,[2]; single tests 1 to 3,0.11 g/mL
same,Tapped density,"[2]; single tests 1 to 3, tapped 200 times",0.23 g/mL
same,Average bulk density,[2]; three parallel tests,0.11 g/mL
same,Average tapped density,"[2]; three parallel tests, tapped 200 times",0.23 g/mL
same,hygroscopicity,[3]; 25° C./80% RH,slight hygroscopicity
same,Crystal transformation after DVS,[3]; XRPD before and after DVS,No
same,maximum tolerance dose,SD rats,174 mg/kg
same,LD50 at 7 d,"[4]; oral, female rats, read-out: LD50 95% confidence interval",313 to 558 mg/kg
same,LD50 at 7 d,"[4]; oral, male rats, read-out: LD50 95% confidence interval",429 to 818 mg/kg
same,MTD at 7 d,"[4]; oral, male rats, read-out: maximum tolerance dose (MTD)",312 mg/kg
same,LD50 at 7 d,"[4]; po, female rats, single intragastric administration, 7 d observation, read-out: LD50",418 mg/kg
same,LD50 at 7 d,"[4]; po, male rats, single intragastric administration, 7 d observation, read-out: LD50",592 mg/kg
same,thermal stability,[5]; comparison of TGA/DSC patterns,high
same,TGA weight loss,[5]; heated from room temperature to 180° C.,1.7%
same,"UPLC peak Area, RRT 1.00",25° C./60% RH/4 weeks,99.71%
same,"UPLC peak Area, RRT 1.47",25° C./60% RH/4 weeks,0.06%
same,"UPLC peak Area, RRT 1.63",25° C./60% RH/4 weeks,0.05%
same,"UPLC peak Area, RRT 2.10",25° C./60% RH/4 weeks,0.10%
same,"UPLC peak Area, RRT 2.94",25° C./60% RH/4 weeks,0.07%
same,Crystal form Transform,"25° C./60% RH/4 weeks, open",No
same,Purity,"25° C./60% RH/4 weeks, open",99.71 area %
same,"UPLC peak Area, RRT 1.00",40° C./75% RH/4 weeks,99.72%
same,"UPLC peak Area, RRT 1.47",40° C./75% RH/4 weeks,0.06%
same,"UPLC peak Area, RRT 1.63",40° C./75% RH/4 weeks,0.05%
same,"UPLC peak Area, RRT 2.10",40° C./75% RH/4 weeks,0.10%
same,"UPLC peak Area, RRT 2.94",40° C./75% RH/4 weeks,0.07%
same,Crystal form Transform,"40° C./75% RH/4 weeks, open",No
same,Purity,"40° C./75% RH/4 weeks, open",99.72 area %
same,"UPLC peak Area, RRT 1.47",80° C./1 d,0.06%
same,"UPLC peak Area, RRT 1.63",80° C./1 d,0.05%
same,"UPLC peak Area, RRT 2.10",80° C./1 d,0.10%
same,"UPLC peak Area, RRT 2.94",80° C./1 d,0.08%
same,Crystal form Transform,"80° C./1 d, closed",No
same,"UPLC peak Area, RRT 1.47",Starting,0.05%
same,"UPLC peak Area, RRT 1.63",Starting,0.05%
same,"UPLC peak Area, RRT 2.10",Starting,0.10%
same,"UPLC peak Area, RRT 2.94",Starting,0.07%
same,FC: crystal transfer (XRPD of solid),"[6]; FaSSIF, 1 h",No
same,pH of filtrate,"[6]; FaSSIF, 1 h",6.6
same,FC: crystal transfer (XRPD of solid),"[6]; FaSSIF, 2 h",No
same,pH of filtrate,"[6]; FaSSIF, 2 h",6.6
same,FC: crystal transfer (XRPD of solid),"[6]; FaSSIF, 4 h",No
same,pH of filtrate,"[6]; FaSSIF, 4 h",6.6
same,FC: crystal transfer (XRPD of solid),"[6]; FaSSIF, 24 h",No
same,pH of filtrate,"[6]; FaSSIF, 24 h",6.6
same,FC: crystal transfer (XRPD of solid),"[6]; FeSSIF, 1 h",No
same,pH of filtrate,"[6]; FeSSIF, 1 h",5.3
same,FC: crystal transfer (XRPD of solid),"[6]; FeSSIF, 2 h",No
same,pH of filtrate,"[6]; FeSSIF, 2 h",5.3
same,FC: crystal transfer (XRPD of solid),"[6]; FeSSIF, 4 h",No
same,pH of filtrate,"[6]; FeSSIF, 4 h",5.3
same,FC: crystal transfer (XRPD of solid),"[6]; FeSSIF, 24 h",No
same,solubility,"[6]; H2O and FaSSIF, water, in H2O and FaSSIF",2100 to 2400 µg/mL
same,FC: crystal transfer (XRPD of solid),"[6]; H2O, 1 h",No
same,FC: crystal transfer (XRPD of solid),"[6]; H2O, 2 h",No
same,FC: crystal transfer (XRPD of solid),"[6]; H2O, 4 h",No
same,pH of filtrate,"[6]; H2O, 4 h",6.7
same,FC: crystal transfer (XRPD of solid),"[6]; H2O, 24 h",No
same,solubility,"[6]; SGF and FeSSIF, simulated gastric fluid, in SGF and FeSSIF, sample not fully dissolved",9000 to 10000 µg/mL
same,FC: crystal transfer (XRPD of solid),"[6]; SGF, 1 h",No
same,FC: crystal transfer (XRPD of solid),"[6]; SGF, 2 h",No
same,pH of filtrate,"[6]; SGF, 2 h",5.2
same,FC: crystal transfer (XRPD of solid),"[6]; SGF, 4 h",No
same,pH of filtrate,"[6]; SGF, 4 h",5.2
same,FC: crystal transfer (XRPD of solid),"[6]; SGF, 24 h",No
same,solubility at 1 h,"[6]; fed state simulated intestinal fluid (FeSSIF), fessif, FeSSIF, 1 h",9400 µg/mL
same,solubility at 2 h,"[6]; fed state simulated intestinal fluid (FeSSIF), fessif, FeSSIF, 2 h",9200 µg/mL
same,solubility at 4 h,"[6]; fed state simulated intestinal fluid (FeSSIF), fessif, FeSSIF, 4 h",9400 µg/mL
same,solubility at 24 h,"[6]; fed state simulated intestinal fluid (FeSSIF), fessif, FeSSIF, 24 h",9900 µg/mL
same,solubility at 1 h,"[6]; simulated gastric fluid (SGF), simulated gastric fluid, SGF, 1 h",9000 µg/mL
same,solubility at 2 h,"[6]; simulated gastric fluid (SGF), simulated gastric fluid, SGF, 2 h",8900 µg/mL
same,solubility at 4 h,"[6]; simulated gastric fluid (SGF), simulated gastric fluid, SGF, 4 h",8800 µg/mL
same,solubility at 24 h,"[6]; simulated gastric fluid (SGF), simulated gastric fluid, SGF, 24 h",9100 µg/mL
